Measurements taken from patent US20210186924A1, “COMPOSITION FOR PROMOTING URIC ACID EXCRETION, COMPOSITION FOR INHIBITING URAT1 AND COMPOSITION FOR LOWERING BLOOD URIC ACID LEVEL” (SUNTORY HOLDINGS LIMITED, priority 2018, published 2021).
Converted amounts (≈) assume the structure as drawn.

What was measured:
[1] = target: T1, human URAT1 (Homo sapiens, UniProt Q96S37); test: URAT1 inhibition: 14C-uric acid uptake in MDCK2 cells stably expressing human URAT1; type: cell-based; details: for IC50: read-out: IC50 (test substance concentration at which URAT1 was inhibited 50%) (converted); for URAT1 inhibition rate (result in words, FIGS. 1 to 4): test substance 1 to 200 μg/mL, uric acid uptake vs DMSO control
T1 construct: expressed in transfected cells
T1 sequence (Q96S37 1-553): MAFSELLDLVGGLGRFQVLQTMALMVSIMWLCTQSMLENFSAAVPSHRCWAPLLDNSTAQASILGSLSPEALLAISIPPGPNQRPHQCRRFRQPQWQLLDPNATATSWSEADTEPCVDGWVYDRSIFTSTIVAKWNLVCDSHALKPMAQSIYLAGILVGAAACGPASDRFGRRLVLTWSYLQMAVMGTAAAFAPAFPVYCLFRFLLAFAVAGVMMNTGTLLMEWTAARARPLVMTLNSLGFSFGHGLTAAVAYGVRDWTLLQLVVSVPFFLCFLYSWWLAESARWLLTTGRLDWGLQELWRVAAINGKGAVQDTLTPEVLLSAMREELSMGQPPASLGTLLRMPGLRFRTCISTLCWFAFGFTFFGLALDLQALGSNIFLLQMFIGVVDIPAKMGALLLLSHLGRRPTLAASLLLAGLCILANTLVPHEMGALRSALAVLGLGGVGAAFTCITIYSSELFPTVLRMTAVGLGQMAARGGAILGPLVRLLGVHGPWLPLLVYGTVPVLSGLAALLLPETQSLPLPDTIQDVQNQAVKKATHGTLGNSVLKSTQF
Protocol: Each test substance was dissolved in dimethyl sulfoxide (DMSO) and added to HBSS to give a test substance concentration of 1, 5, 10, 15, 20, 40, 60, 80, 100, or 200 μg/mL. […] Uric acid was added to HBSS to give a concentration of 20 μM. Subsequently, the cells were washed again with HBSS, and then dissolved in a 0.1 N sodium hydroxide aqueous solution. The radiation dose of 14 C in the solution was measured by a liquid scintillation counter, and the uptake amount of uric acid into the cells was measured. A positive control was provided by adding benzbromarone at 30 μM. A test substance non-addition group as a control was provided by adding only DMSO to HBSS (DMSO concentration: 1%). The tests were performed with n=3 for the control and for the test substances at each concentration. […] The uptake amount of uric acid was determined with an average of n=3. The calculation formula of the URAT1 inhibition rate (%) is as follows. The control group is the test substance non-addition group.
Inhibition rate (%)=100×{((uptake amount of uric acid in control group)−(uptake amount of uric acid in test substance addition group))/uptake amount of uric acid in control group}

[2] = high temperature of 100° C.; cited from earlier work
[3] = MDCK2 cells expressing human URAT1, 14C-uric acid 20 μM, 10 minutes, n=3

| Structure (SMILES) | IC50 [1, 3] | inhibition at 30 µM ([1]; MDCK2, read-out: URAT1 inhibition rate) | URAT1 inhibition rate (result in words, FIGS. 1 to 4) [1] | IC50 (test substance concentration at which URAT1 was inhibited 50%) [1, 3] | Thermal stability [2] |
| --- | --- | --- | --- | --- | --- |
| O=C1C[C@@H](c2ccc(O)c(O)c2)Oc2cc(O)cc(O)c21 [Eriodictyol, eriodictyol] | 43.5 µM | – | significant increase in the inhibition rate | – | – |
| COc1ccc([C@@H]2CC(=O)c3c(O)cc(O[C@@H]4O[C@H](CO[C@@H]5O[C@@H](C)[C@H](O)[C@@H](O)[C@H]5O)[C@@H](O)[C@H](O)[C@H]4O)cc3O2)cc1O [Hesperidin, hesperidin] | – | – | significant increase in the inhibition rate | 16.97 µg/mL (≈ 27.8 µM) | – |
| COc1cc(O)c(CC=C(C)C)c(O)c1C(=O)/C=C/c1ccc(O)cc1 [xanthohumol, reference compound] | – | – | did not show a significant increase in the inhibition rate | – | – |

Now from value to molecule, other results behind:

| IC50 [1, 3] | inhibition at 30 µM ([1]; MDCK2, read-out: URAT1 inhibition rate) | Structure (SMILES) | URAT1 inhibition rate (result in words, FIGS. 1 to 4) [1] | IC50 (test substance concentration at which URAT1 was inhibited 50%) [1, 3] | Thermal stability [2] |
| --- | --- | --- | --- | --- | --- |
| 25.1 µM | – | COc1cc(O)c(CC=C(C)C)c2c1C(=O)CC(c1ccc(O)cc1)O2 (centres unmarked) [Isoxanthohumol, isoxanthohumol] | significant increase in the inhibition rate | – | stable even at a high temperature of 100 °C |
| 41.9 µM | – | O=C1C[C@@H](c2ccc(O)cc2)Oc2cc(O)cc(O)c21 [Naringenin, naringenin] | significant increase in the inhibition rate | – | – |
| – | 99 to 100% | CCc1oc2ccccc2c1C(=O)c1cc(Br)c(O)c(Br)c1 [benzbromarone, reference compound] | – | – | – |
